Assay results taken from patent US5977156A (priority 1996, dated 1999).
≈ marks a conversion by molar mass, not a printed value. Where two headings read alike, the source gives them in different places.

Tests used:
[1] = test system: Grain discoloration (Pseudomonas spp., Erwinia herbicola, Helminthosporium oryzae and/or Alternaria spp.); experiment: Rice seed treatment field trial, attack type 7 (grain discoloration); format: in vivo; conditions: vs insecticide-treated control plots
Pyrenophora graminea = experiment: Barley seed treatment against leaf stripe; format: in vivo; conditions: barley (Agneta), naturally infected, 100 g/100 kg seeds
Method: This example illustrates application against leaf stripe (Pyrenophora graminea).
Barley seeds (variety Agneta), naturally infected with Pyrenophora graminea, were treated in the proportion of 100 g of active material per 100 kg of seeds.
(§1) These seeds are sown in 7×7 cm pots filled with a peat/pozzolana mixture in the proportion of 25 seeds per pot.
These pots are maintained at 5° C. and in darkness for 3 weeks and are then placed at 10° C. under artificial light for 1 week. They are finally placed under glass, on sand kept moist by regular sprinkling, at 20° C. and 60% relative humidity for 3 weeks.
The seedlings carrying the disease (seedlings carrying off-white streaks along the leaves) are then counted and the following results (expressed as percentage) are obtained. The control seedlings correspond to pots in which barley seeds, naturally infected with the disease, have been sown, which seeds have not been treated. Two successive tests were carried out.

Rhizoctonia solani = experiment: Cotton seed treatment against damping off; format: in vivo; conditions: cotton (DP 50), 17 days; for Total damping off (in %): pre-+post-emergence, control 80; for Pre-emergence damping off (in %): control 70
Method: This example illustrates application against damping off (Rhizoctonia solani).
Cotton seeds (variety DP 50) were treated in the proportion of 125, 250 and 500 g of active material per 100 kg of seeds.
These seeds are sown in 7×7 cm pots filled with a peat/pozzolana mixture which has been pre-infected by incorporation of 1 part of an aqueous suspension containing milled Rhizoctonia solani mycelium in 1600 parts of substrate. Each pot contains 5 cotton seeds.
These pots are then placed under glass at a temperature of 25° C. and at a relative humidity of 80% for 17 days.
The results with respect to early damping off (pre-emergence) and with respect to all the damping off attacks (pre-+post-emergence) are shown in the table below (expressed as percentage). The control seedlings correspond to pots filled with a substrate infected with the disease in which untreated cotton seeds have been sown.

[2] = test system: Rhizoctonia solani (sheath blight); experiment: Rice seed treatment field trial, attack type 1 (sheath blight); format: in vivo, also called Pellicularia sasakii; conditions: vs insecticide-treated control plots, after 2 months
Microdochium nivale = experiment: Wheat seed treatment against snow mould; format: in vivo; conditions: wheat (Ixos), naturally infected, control 96
Method: This example illustrates application against snow mould (Microdochium nivale).
Wheat seeds (variety Ixos), naturally infected with Microdochium nivale, were treated in the proportion of 5, 10, 25, 50 and 100 g of active material per 100 kg of seeds.
as §1
These pots are maintained at 5° C. and in darkness for 3 weeks and are then placed at 10° C. under artificial light for 1 week. They are finally placed under glass, on sand kept moist by regular sprinkling, at 20° C. and 60% relative humidity for 1 week.
The seedlings carrying the disease (unemerged seedlings and deformed seedlings) are then counted and the results shown in the table below (expressed as percentage) are obtained. The control seedlings correspond to pots in which wheat seeds, naturally infected with the disease, have been sown, which seeds have not been treated.

Gloeophyllum trabeum = experiment: Inhibition of growth of wood-degrading fungus on agar; format: cell-based; conditions: agar culture medium, 20° C., read-out: IC50 (50% inhibition of the growth of the fungus)
Method: (§2) This example illustrates application against fungi which degrade wood.
(§3) Agar culture medium containing different doses of the active material to be tested is introduced into petri dishes.
(§4) Petri dishes with the same culture medium without the active material are prepared in order to act as control.
(§5) One day after the preparation of these petri dishes, agar implants supporting a fungal culture are deposited at the center of each petri dish. The fungi tested are: Serpula lacrymans, Coniophora puteana (dry and wet rots) and Gleophyllum trabeum.
(§6) The petri dishes are then placed at 20° C. until the results are recorded. The results are read when the untreated control culture has colonized virtually all the dish. The diameter of the fungal cultures is then measured and the concentration of active material causing 50% inhibition of the growth of the fungus (called the IC50) is calculated.

Serpula lacrymans = experiment: as above; format: cell-based; conditions: agar culture medium, 20° C., read-out: IC50 (50% inhibition of the growth of the fungus)
Method: as §2, §3, §4, §5, §6

Coniophora puteana = experiment: as above; format: cell-based; conditions: agar culture medium, 20° C., read-out: IC50 (50% inhibition of the growth of the fungus)
Method: as §2, §3, §4, §5, §6

[3] = test system: Pyricularia oryzae (neck blast); format: in vivo; conditions: vs insecticide-treated control plots, after 2 months
[4] = test system: Puccinia recondita forma speciae tritici; experiment: Wheat seed treatment against brown rust; format: in vivo; conditions: wheat (Theseus), infected foliar area, control 61
Method: EXAMPLE 8 This example illustrates application against brown rust of wheat (Puccinia recondita forma speciae tritici).
Wheat seeds (variety Theseus) were treated in the proportion of 10, 25, 50 and 100 g of active material per 100 kg of seeds.
These seeds are sown in 7×7 cm pots filled with a peat/pozzolana mixture in the proportion of 40 to 50 seeds per pot.
These pots are maintained at 10° C. under artificial light for 3 weeks, so that they arrive at the growth stage known as the 1-2-leaf stage.
Infection is then carried out by spraying an aqueous suspension containing 100000 spores of Puccinia recondita per ml.
The pots are then placed at 20° C. and 100% relative humidity for 24 hours and then under glass, on sand kept moist by regular sprinkling, at 20° C. and 80% relative humidity for 10 days.
The infected foliar area of the 1st leaf is then quantified visually.
The results shown in the table below (expressed as percentage) are obtained. The control seedlings correspond to pots in which untreated wheat seeds have been sown, which seeds have been infected by the disease.

Sphacelotheca reiliana = experiment: Maize seed treatment against head smut; format: in vivo; conditions: maize (Adonis), 250 g/100 kg seeds, 3 months after sowing
Method: This example illustrates application against head smut (Sphacelotheca reiliana).
Maize seeds (variety Adonis) were treated in the proportion of 250 g of active material per 100 kg of seeds.
These seeds are sown in 9×9 cm pots filled with a mixture of compost and coarse sand which has been pre-infected by incorporation of Sphacelotheca reiliana spores according to 2 infectious doses: […] of substrate. Each pot contains 5 maize seeds.
These pots are then placed under glass on sand kept moist by regular sprinkling, at a temperature of 20° C. and a relative humidity of 60%.
Three months after sowing, the seedlings carrying the disease (presence or absence of smut in the maize inflorescences) are counted and the results shown in the table below (expressed as percentage) are obtained. The control seedlings correspond to pots filled with a substrate infected with the disease in which untreated maize seeds have been sown.

[5] = test system: Pyricularia oryzae (leaf blast); format: in vivo, also called Magnaporthe grisae; conditions: vs insecticide-treated control plots, after 2 months
[6] = test system: Sheath rot (Acrocylindrium oryzae and/or Gaeumannomyces graminis and/or Helminthosporium oryzae); experiment: Rice seed treatment field trial, attack type 6 (sheath rot); format: in vivo; conditions: vs insecticide-treated control plots, after 2 months
[7] = test system: Rhynchosporium oryzae (leaf scald); experiment: Rice seed treatment field trial, attack type 5 (leaf scald = leaf tip blight); format: in vivo; conditions: vs insecticide-treated control plots, after 2 months
Fusarium moniliforme = experiment: Maize seed treatment against root rot; format: in vivo; conditions: maize (Pinnacle), control 92
Method: This example illustrates application against root rot (Fusarium moniliforme).
Maize seeds (variety Pinnacle) were treated in the proportion of 125 and 250 g of active material per 100 kg of seeds.
These seeds are sown in 7×7 cm pots filled with vermiculite in the proportion of 5 seeds per pot. Infection is carried out by introducing, into the vicinity of the seeds, in the upper part of the substrate, 10 ml of an aqueous suspension containing 400000 spores of Fusarium moniliforme per ml.
These pots are then maintained at 80% humidity for 3 weeks at 8° C. and then for 2 weeks at 16° C.
The seedlings carrying the disease (unemerged seedlings and seedlings with slowed and deformed growth) are then counted and the results shown in the table below (expressed as percentage) were obtained. The control seedlings correspond to pots in which untreated maize seeds have been sown, which seeds have been infected with the disease.

[8] = test system: Helminthosporium oryzae (brown spot); experiment: Rice seed treatment field trial, attack type 2 (brown spot); format: in vivo, also called Cochliobolus miyabeanus; conditions: vs insecticide-treated control plots, after 2 months
[9] = Ex. 1: 40 g/100 kg rice seed, 150 kg/ha
[10] = Ex. 2: 40 g/100 kg rice seed, 200 kg/ha
[11] = Ex. 3: 40 g/100 kg rice seed, 150 kg/ha, pregerminated
[12] = Ex. 4: 40 g/100 kg rice seed, 200 kg/ha, pregerminated

N#Cc1nn(-c2c(Cl)cc(C(F)(F)F)cc2Cl)c(N)c1[S+]([O-])C(F)(F)F (stereo not shown) [Compound A, 5-amino-3-cyano-1-(2,6-dichloro-4-trifluoromethyl)phenyl-4-trifluoromethylsulfinylpyrazole]
number of grains in which the normal yellow color is replaced by brown blemishes; result observed, expressed as percentage [1, 9]: 63 percentage
number of grains in which the normal yellow color is replaced by brown blemishes; result observed, expressed as percentage [1, 10]: 70 percentage
number of grains in which the normal yellow color is replaced by brown blemishes; result observed, expressed as percentage [1, 11]: 63 percentage
number of grains in which the normal yellow color is replaced by brown blemishes; result observed, expressed as percentage [1, 12]: 70 percentage
Number of diseased seedlings (in %) (Pyrenophora graminea; Test No. 1, control 50): 34%
Number of diseased seedlings (in %) (Pyrenophora graminea; Test No. 2, control 44): 29%
Total damping off (in %) (Rhizoctonia solani; 125 g/100 kg seeds): 50%
Pre-emergence damping off (in %) (Rhizoctonia solani; 125 g/100 kg seeds): 45%
Total damping off (in %) (Rhizoctonia solani; 250 g/100 kg seeds): 60%
Pre-emergence damping off (in %) (Rhizoctonia solani; 250 g/100 kg seeds): 45%
Total damping off (in %) (Rhizoctonia solani; 500 g/100 kg seeds): 50%
Pre-emergence damping off (in %) (Rhizoctonia solani; 500 g/100 kg seeds): 10%
number of sheaths attacked; result observed, expressed as percentage [2, 9]: 55 percentage
number of sheaths attacked; result observed, expressed as percentage [2, 10]: 60 percentage
number of sheaths attacked; result observed, expressed as percentage [2, 11]: 55 percentage
number of sheaths attacked; result observed, expressed as percentage [2, 12]: 60 percentage
Number of diseased seedlings (in %) (Microdochium nivale; 5 g/100 kg seeds): 89%
Number of diseased seedlings (in %) (Microdochium nivale; 10 g/100 kg seeds): 82%
Number of diseased seedlings (in %) (Microdochium nivale; 25 g/100 kg seeds): 89%
Number of diseased seedlings (in %) (Microdochium nivale; 50 g/100 kg seeds): 85%
Number of diseased seedlings (in %) (Microdochium nivale; 100 g/100 kg seeds): 80%
IC50 (Gloeophyllum trabeum): 0.3 µg/mL (≈ 0.686 µM)
IC50 (Serpula lacrymans): 14.5 µg/mL (≈ 33.2 µM)
IC50 (Coniophora puteana): 16.3 µg/mL (≈ 37.3 µM)
number of plants attacked just below the ear; result observed, expressed as percentage [3, 9]: 35 percentage
number of plants attacked just below the ear; result observed, expressed as percentage [3, 10]: 39 percentage
number of plants attacked just below the ear; result observed, expressed as percentage [3, 11]: 35 percentage
number of plants attacked just below the ear; result observed, expressed as percentage [3, 12]: 39 percentage
Infection of the 1st leaf (in %) ([4]; 10 g/100 kg seeds): 47%
Infection of the 1st leaf (in %) ([4]; 25 g/100 kg seeds): 37%
Infection of the 1st leaf (in %) ([4]; 50 g/100 kg seeds): 17%
Infection of the 1st leaf (in %) ([4]; 100 g/100 kg seeds): 2%
Number of diseased seedlings (in %) (Sphacelotheca reiliana; infectious dose 0.125 g/kg, control 67): 46%
Number of diseased seedlings (in %) (Sphacelotheca reiliana; infectious dose 0.25 g/kg, control 71): 40%
number of sheaths attacked; result observed, expressed as percentage [5, 9]: 82 percentage
number of sheaths attacked; result observed, expressed as percentage [5, 10]: 90 percentage
number of sheaths attacked; result observed, expressed as percentage [5, 11]: 82 percentage
number of sheaths attacked; result observed, expressed as percentage [5, 12]: 90 percentage
number of sheaths attacked; result observed, expressed as percentage [6, 9]: 80 percentage
number of sheaths attacked; result observed, expressed as percentage [6, 10]: 88 percentage
number of sheaths attacked; result observed, expressed as percentage [6, 11]: 80 percentage
number of sheaths attacked; result observed, expressed as percentage [6, 12]: 88 percentage
number of leaves having a withered part; result observed, expressed as percentage [7, 9]: 57 percentage
number of leaves having a withered part; result observed, expressed as percentage [7, 10]: 63 percentage
number of leaves having a withered part; result observed, expressed as percentage [7, 11]: 57 percentage
number of leaves having a withered part; result observed, expressed as percentage [7, 12]: 63 percentage
Number of diseased seedlings (in %) (Fusarium moniliforme; 125 g/100 kg seeds): 72%
Number of diseased seedlings (in %) (Fusarium moniliforme; 250 g/100 kg seeds): 76%
area of leaves attacked; result observed, expressed as percentage [8, 9]: 79 percentage
area of leaves attacked; result observed, expressed as percentage [8, 10]: 87 percentage
area of leaves attacked; result observed, expressed as percentage [8, 11]: 79 percentage
area of leaves attacked; result observed, expressed as percentage [8, 12]: 87 percentage
